≈ marks a conversion by molar mass, not a printed value.
Columns and labels:
[1] = Lipophilicity, log D of the compound at pH 7.4 by RP-HPLC analysis; assay type: physicochemical; settings: buffer
[2] = Volume of distribution at steady state in Wistar Han rat at 1 mg/kg, iv or 3 mg/kg, po via gavage by LC-MS/MS analysis; assay type: ADME, organism-based; settings: in vivo, read-out: Vdss
[3] = Volume of distribution at steady state in Beagle dog at 1 mg/kg, iv or 3 mg/kg, po via gavage by LC-MS/MS analysis; assay type: ADME, organism-based, Canis lupus familiaris; settings: in vivo, read-out: Vdss
[4] = Volume of distribution at steady state in Balb/c mouse at 1 mg/kg, iv or 30 mg/kg, po via gavage by LC-MS/MS analysis; assay type: ADME, organism-based; settings: in vivo, read-out: Vdss
[5] = Oral bioavailability in Wistar Han rat at 3 mg/kg administered via spray-dried dispersion by LC-MS/MS analysis; assay type: ADME, organism-based; settings: in vivo
[6] = Oral bioavailability in Beagle dog at 3 mg/kg administered via spray-dried dispersion measured over 24 hrs by LC-MS/MS analysis; assay type: ADME, organism-based, Canis lupus familiaris; settings: in vivo
[7] = Oral bioavailability in Balb/c mouse at 30 mg/kg administered via spray-dried dispersion by LC-MS/MS analysis; assay type: ADME, organism-based; settings: in vivo
[8] = Oral bioavailability in Wistar Han rat at 3 mg/kg administered as crystalline solid by LC-MS/MS analysis; assay type: ADME, organism-based; settings: in vivo
[9] = Apparent permeability in RRCK cells; assay type: ADME, cell-based, Canis lupus familiaris, MDCKII-LE; settings: dog, MDCK
[10] = Thermodynamic solubility of the compound at pH 6.5; assay type: physicochemical; settings: buffer, read-out: Therm_solubility

| Structure (SMILES) | logD [1] | other results |
| --- | --- | --- |
| Cn1cc(C2CCN(C(=O)C3CCCC3)CC2)c2nc(NC(=O)c3cc(C#N)ccn3)ccc21 | 4.2 | – |
| CC(C)C(=O)N1CCC(c2cn(C)c3ncc(NC(=O)c4cccc(C#N)c4)c(C(C)C)c23)CC1 | 2.6 | – |
| Cc1c(NC(=O)c2cccc(C#N)c2)cnc2c1c(C1CCN(C(=O)C3CCCCC3)CC1)cn2C | 3.9 | – |
| Cc1cccc(F)c1C(=O)N1CCC(c2cn(C)c3ncc(NC(=O)c4cccc(C#N)c4)c(C)c23)CC1 | 3.1 | – |
| Cc1c(NC(=O)c2ccc(Cl)c(C#N)c2)cnc2c1c(C1CCN(C(=O)C(C)C)CC1)cn2C | 3.6 | – |
| Cn1cc(C2CCN(C(=O)C3CCCC3)CC2)c2cc(NC(=O)c3cc(C#N)ccn3)ccc21 | 4.3 | – |
| Cn1cc(C2CCN(C(=O)C3CCCC3)CC2)c2cc(NC(=O)c3cccc(C#N)c3)cnc21 | 3.8 | – |
| Cc1c(NC(=O)c2cccc(C#N)c2)cnc2c1c(C1CCN(C(=O)CC(C)C)CC1)cn2C | 2.5 | – |
| COc1c(NC(=O)c2cccc(C#N)c2)cnc2c1c(C1CCN(C(=O)C(C)C)CC1)cn2C | 2 | – |
| Cc1c(NC(=O)c2cccc(C#N)c2)cnc2c1c(C1CCN(C(=O)C(C)C)CC1)cn2C | 2 | – |
| Cc1c(NC(=O)c2cccc(C#N)c2)cnc2c1c(C1CCN(C(=O)C3CC3)CC1)cn2C | 2.3 | – |
| CC(=O)N1CCC(c2cn(C)c3ncc(NC(=O)c4cccc(C#N)c4)c(C)c23)CC1 | 1.6 | – |
| Cn1cc(C2CCN(C(=O)C3CCCC3)CC2)c2cc(NC(=O)c3cc(C#N)ccn3)cnc21 | 3.7 | – |
| Cn1cc(C2CCN(C(=O)C3CCCC3)CC2)c2cc(NC(=O)c3cccc(C#N)c3)ccc21 | 4.4 | – |
| Cc1c(NC(=O)c2cccc(C#N)c2)cnc2c1c(C1CCN(C(=O)C3CCCC3)CC1)cn2C | 2.9 | – |
| CCC(=O)N1CCC(c2cn(C)c3ncc(NC(=O)c4cccc(C#N)c4)c(C)c23)CC1 | 2 | – |
| Cc1c(NC(=O)c2cccc(C#N)c2)cnc2c1c(C1CCN(C(=O)C3CCC3)CC1)cn2C | 2.6 | – |
| Cc1c(NC(=O)c2ccc(F)c(C#N)c2)cnc2c1c(C1CCN(C(=O)C(C)C)CC1)cn2C | 2.3 | – |
| Cc1ccc(C(=O)Nc2cnc3c(c(C4CCN(C(=O)C(C)C)CC4)cn3C)c2C)cc1C#N | 2.3 | – |
| Cc1noc(C)c1C(=O)N1CCC(c2cn(C)c3ncc(NC(=O)c4cccc(C#N)c4)c(C)c23)CC1 | 2 | – |
| Cc1c(NC(=O)c2cccc(C#N)c2)cnc2c1c(C1CCN(C(=O)C3CCOC3)CC1)cn2C (centres undefined) | 1.6 | – |
| COc1ccc(C(=O)Nc2cnc3c(c(C4CCN(C(=O)C(C)C)CC4)cn3C)c2C)cc1C#N | 2.4 | – |
| Cc1c(NC(=O)c2cccc(C#N)c2)ccc2c1c(C1CCN(C(=O)C3CCCC3)CC1)cn2C | 4 | – |
| Cc1c(NC(=O)c2cccc(C#N)c2)cnc2c1c(C1CCN(C(=O)CC3CC3)CC1)cn2C | 2.4 | – |
| CC(C)C(=O)N1CCC(c2cn(C)c3ncc(NC(=O)c4cccc(C#N)c4)c(C(F)(F)F)c23)CC1 | 3.7 | Vd [2]: 1.4 L/kg; Vd [3]: 1.5 L/kg; Vd [4]: 0.8 L/kg; bioavailability [5]: 83%; bioavailability [6]: 73%; bioavailability [7]: 30%; bioavailability [8]: 21%; Papp [9]: 13.2 ×10⁻⁶ cm/s; solubility thermodynamic [10]: 1 µM (≈ 0.498 µg/mL) |
